Reference: PMC3601784 (Chromatographia, 2012)

Key:
[1] = Solubility of PHOME in assay buffer; format: physicochemical; settings: BIS–TRIS buffer with 0.1 g/L Tween 80, in the superloop
[2] = target: T1, Human recombinant sEH (Homo sapiens, UniProt P34913); assay: LC-BCD/MS; format: biochemical; settings: mixture of sEHi 6, sEHi 1, sEHi 7, diclofenac and phenylbutazone separated by LC
T1 sequence (P34913 1-555): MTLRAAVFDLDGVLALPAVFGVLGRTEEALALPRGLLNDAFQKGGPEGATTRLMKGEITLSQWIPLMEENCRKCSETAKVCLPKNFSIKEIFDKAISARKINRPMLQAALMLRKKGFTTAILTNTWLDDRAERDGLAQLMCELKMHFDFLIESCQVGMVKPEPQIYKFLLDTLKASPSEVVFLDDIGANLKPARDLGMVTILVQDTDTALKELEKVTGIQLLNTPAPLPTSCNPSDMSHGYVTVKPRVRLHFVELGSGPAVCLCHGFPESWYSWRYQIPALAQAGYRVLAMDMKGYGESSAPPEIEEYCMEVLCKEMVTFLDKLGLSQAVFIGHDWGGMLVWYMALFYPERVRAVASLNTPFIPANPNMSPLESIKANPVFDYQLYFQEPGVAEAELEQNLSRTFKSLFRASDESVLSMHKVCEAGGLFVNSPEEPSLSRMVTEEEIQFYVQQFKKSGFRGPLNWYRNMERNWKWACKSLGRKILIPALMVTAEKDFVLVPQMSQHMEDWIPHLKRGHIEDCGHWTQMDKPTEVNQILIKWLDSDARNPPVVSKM

| Structure (SMILES) | limit of solubility [1] | sEH activity (BCD peak) in a standard mixture [2] |
| --- | --- | --- |
| COc1ccc2cc(C(C#N)OC(=O)CC3OC3c3ccccc3)ccc2c1 (centres unmarked) [PHOME, (3-phenyl-oxiranyl)-acetic acid cyano-(6-methoxy-naphthalen-2-yl)-methyl ester] | ~30 µM |  |
| CCCCC1C(=O)N(c2ccccc2)N(c2ccccc2)C1=O [phenylbutazone] |  | without sEH activity |
